≈ marks a conversion by molar mass, not a printed value.
Test: Solubility test in water (stepwise addition of water, ultrasonic waves, visual observation of precipitate)
Type: physicochemical
Conditions: for solubility at 1 min: from solid; for solubility in water as a fraction of the solubility of 2,7hpp2SF in water: one atmosphere, RT, relative to comparative 2,7hpp2SF
Description: In this example, the solubility of the organic compounds that can be used in the display apparatus of one embodiment of the present invention is described. Note that the solubility test was conducted at a pressure of one atmosphere at room temperature (RT).
(§1) The mixture was irradiated with ultrasonic waves for 1 minute. The mixture was visually observed, and a white powdered precipitate was observed. This means part of 2′,7′tBu-2,7hpp2SF remained undissolved. […] This process was repeated until the white powdered precipitate was not visually observed any more. Thus, the solubility was examined.
The mixture was irradiated with ultrasonic waves for 1 minute. Whether part of the mixture remained undissolved was visually confirmed, and a white powdered precipitate was observed. […] This process was repeated.
as §1, with “was” for “was visually”, “2,7hpp2SF” for “2′,7′tBu-2,7hpp2SF”

SMILES	solubility at 1 min [µg/mL]	solubility in water as a fraction of the solubility of 2,7hpp2SF in water	weight that is dissolved in 1.0 mL of water (pressure of one atmosphere, room temperature (RT))
c1ccc2c(c1)-c1ccccc1C21c2cc(N3CCCN4CCCN=C43)ccc2-c2ccc(N3CCCN4CCCN=C43)cc21 [2,7hpp2SF, 1,1′-(9,9′-spirobi[9H-fluorene]-2,7-diyl)bis(1,3,4,6,7,8-hexahydro-2H-pyrimido[1,2-a]pyrimidine), reference compound]	330 to 390 (≈ 559 to 660 µM)		
CC(C)(C)c1ccc2c(c1)C1(c3cc(N4CCCN5CCCN=C54)ccc3-c3ccc(N4CCCN5CCCN=C54)cc31)c1cc(C(C)(C)C)ccc1-2 [Structural Formula (100), 1,1′-(2′,7′-di-tert-butyl-9,9′-spirobi[9H-fluorene]-2,7-diyl)bis(1,3,4,6,7,8-hexahydro-2H-pyrimido[1,2-a]pyrimidine)]	58 to 61	less than or equal to ⅕	
CC(C)(C)c1ccc2c(c1)C1(c3ccccc3-c3ccc(N4CCCN5CCCN=C54)cc31)c1cc(C(C)(C)C)ccc1-2 [Structural Formula (101), 1-(2′,7′-di-tert-butyl-9,9′-spirobi[9H-fluoren]-2-yl)-1,3,4,6,7,8-hexahydro-2H-pyrimido[1,2-a]pyrimidine]	< 2.3	less than or equal to 1/140	less than 0.0023 mg

Source: US20230348400A1, “ORGANIC COMPOUND, LIGHT-EMITTING DEVICE, AND LIGHT-EMITTING APPARATUS” (SEMICONDUCTOR ENERGY LABORATORY CO., LTD., priority 2022, published 2023)
